Results taken from ChEMBL document CHEMBL4052827, “Discovery of Tetrahydroisoquinoline-Containing CXCR4 Antagonists with Improved in Vitro ADMET Properties” (J Med Chem, 2018).

Experiments:
[1] = Antagonist activity at mAChR in human CCRF-CEM cells assessed as decrease in acetylacholine-stimulated Ca2+ flux preincubated for 25 mins followed by acetylacholine addition measured for 90 secs by calcium dye-based fluorescence assay; assay type: cell-based
[2] = Metabolic stability in mouse liver microsomes assessed as parent compound remaining at 0.5 uM after 10 mins in presence of NADPH by LC-MS/MS analysis
[3] = target: T1, C-X-C chemokine receptor type 4 (Homo sapiens, UniProt P61073); assay: Antagonist activity at human CXCR4 in CCRF-CEM cells assessed as decrease in SDF-1alpha stimulated Ca2+ flux preincubated for 25 mins followed by SDF-1alpha addition measured for 90 secs by calcium dye-based fluorescence assay; assay type: functional, cell-based
T1 sequence (P61073 whole entry): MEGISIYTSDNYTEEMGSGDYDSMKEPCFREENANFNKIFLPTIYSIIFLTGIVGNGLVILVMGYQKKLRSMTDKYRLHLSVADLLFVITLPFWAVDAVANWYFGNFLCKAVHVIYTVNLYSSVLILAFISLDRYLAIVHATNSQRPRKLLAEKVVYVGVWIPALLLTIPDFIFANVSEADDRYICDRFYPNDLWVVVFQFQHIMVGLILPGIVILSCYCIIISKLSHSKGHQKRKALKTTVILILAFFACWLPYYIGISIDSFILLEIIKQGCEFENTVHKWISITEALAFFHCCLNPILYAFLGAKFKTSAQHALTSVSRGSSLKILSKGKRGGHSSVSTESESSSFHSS

[4] = target: T1, C-X-C chemokine receptor type 4; assay: Agonist activity at CXCR4 in human CCRF-CEM cells assessed as induction of Ca2+ flux measured for 90 secs by calcium dye-based fluorescence assay; assay type: functional, cell-based
[5] = Metabolic stability in human liver microsomes assessed as parent compound remaining at 0.5 uM after 10 mins in presence of NADPH by LC-MS/MS analysis
[6] = Agonist activity at mAChR in human CCRF-CEM cells assessed as induction of Ca2+ flux measured for 90 secs by calcium dye-based fluorescence assay; assay type: cell-based
[7] = Permeability of the compound at pH 5.5 at 100 uM after 4 hrs by PAMPA
Cytochrome P450 2D6 = Cytochrome P450 2D6 (Homo sapiens, UniProt P10635); assay: Inhibition of recombinant human CYP2D6 expressed in microsomes of insect cells using AMMC as substrate preincubated for 30 mins followed by NADP addition after 45 mins by fluorescence analysis
Chain of Cytochrome P450 2D6 (P10635 whole entry): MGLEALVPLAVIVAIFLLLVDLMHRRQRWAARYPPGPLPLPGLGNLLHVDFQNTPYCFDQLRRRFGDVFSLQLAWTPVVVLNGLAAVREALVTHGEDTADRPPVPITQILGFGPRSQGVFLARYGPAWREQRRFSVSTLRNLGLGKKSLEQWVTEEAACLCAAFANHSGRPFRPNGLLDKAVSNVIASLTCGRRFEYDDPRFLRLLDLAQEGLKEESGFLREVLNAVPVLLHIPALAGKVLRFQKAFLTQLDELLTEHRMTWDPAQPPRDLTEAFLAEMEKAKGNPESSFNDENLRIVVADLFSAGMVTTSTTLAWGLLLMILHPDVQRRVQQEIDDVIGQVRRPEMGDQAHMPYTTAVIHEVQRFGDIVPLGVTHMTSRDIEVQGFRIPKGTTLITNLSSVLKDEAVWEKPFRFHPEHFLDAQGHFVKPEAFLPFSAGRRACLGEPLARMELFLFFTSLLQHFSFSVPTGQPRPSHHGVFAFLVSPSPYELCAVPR

[8] = Permeability of the compound at pH 7.4 at 100 uM after 4 hrs by PAMPA

| Structure (SMILES) | IC50 [1] [µM] | remaining at 10 min, 0.5 µM [2] [%] | IC50 [3] [µM] | EC50 [4] [µM] | remaining at 10 min, 0.5 µM [5] [%] | EC50 [6] [µM] | Papp at 4 h, 100 µM [7] [×10⁻⁶ cm/s] | IC50 (Cytochrome P450 2D6) [µM] | Papp at 4 h, 100 µM [8] [×10⁻⁶ cm/s] |
| --- | --- | --- | --- | --- | --- | --- | --- | --- | --- |
| c1ccc(CN(CCCCN(C[C@H]2Cc3ccccc3CN2)[C@H]2CCCc3cccnc32)Cc2ccccc2)cc1 | > 33.3 | 0.298 | > 16.7 | > 30 | 4.84 | > 30 | 3.9 | 0.494 |  |
| CC(C)(CCN(C[C@H]1Cc2ccccc2CN1)[C@H]1CCCc2cccnc21)CNCC1CCOCC1 | 13 | 60.3 | 0.0438 | > 30 | 46.1 | > 30 | 6.2 | 1.75 |  |
| CC1(C)CCC(NCc2ccc(CN(C[C@H]3Cc4ccccc4CN3)[C@H]3CCCc4cccnc43)cc2)CC1 | 8.76 | 23.2 |  | > 30 | 14.9 | > 30 |  | 0.258 |  |
| C(=C\CN(C[C@H]1Cc2ccccc2CN1)[C@H]1CCCc2cccnc21)/CNCc1ccncc1 | > 16.7 |  |  |  |  | > 30 |  |  |  |
| c1ccc(CN(CCCCN(C[C@H]2Cc3ccccc3CN2)[C@H]2CCCc3cccnc32)Cc2ccccn2)nc1 | 12.9 | 0.374 | 0.664 | > 30 | 0.548 | > 30 | 4.8 | 1.16 | 29.4 |
| FC1(F)CCC(NCc2ccc(CN(C[C@H]3Cc4ccccc4CN3)[C@H]3CCCc4cccnc43)cc2)CC1 | > 16.7 | 30.2 |  | > 30 | 10.8 | > 30 |  | 0.577 | 0.5 |
| c1ccc(CNCc2ccc(CN(C[C@H]3Cc4ccccc4CN3)[C@H]3CCCc4cccnc43)cc2)nc1 | 6.94 | 11.6 |  | > 30 | 1.77 | > 30 | 1.6 | 0.377 |  |
| FC1(F)CCC(NC/C=C/CN(C[C@H]2Cc3ccccc3CN2)[C@H]2CCCc3cccnc32)CC1 | 6.98 | 2.12 |  | > 30 | 31.7 | > 30 | 0.9 | 1.45 | 4.9 |
| c1ccc2c(c1)CN[C@@H](CN(CCCCNCc1ccncc1)[C@H]1CCCc3cccnc31)C2 | > 33.3 | 6.44 | 0.0227 | > 30 | 1.92 | > 30 | 0.65 | 0.145 |  |
| C(=C\CN(C[C@H]1Cc2ccccc2CN1)[C@H]1CCCc2cccnc21)/CNCc1ccccn1 | 22 | 2.98 |  | > 30 | 31.2 | > 30 | 1.8 | 0.709 | 5 |
| c1cncc(CNCCCCN(C[C@H]2Cc3ccccc3CN2)[C@H]2CCCc3cccnc32)c1 | 19.9 | 10.2 | 0.0153 | > 30 | 21.4 | > 30 |  | 0.217 |  |
| c1ccc(CNCCCCN(C[C@H]2Cc3ccccc3CN2)[C@H]2CCCc3cccnc32)nc1 | > 30 |  |  |  |  | > 30 |  |  |  |
| c1ccc(CNCCCCN(C[C@H]2Cc3ccccc3CN2)[C@H]2CCCc3cccnc32)cc1 | 3.43 | 31.2 | 0.0201 | > 30 | 71.7 | > 30 |  | 0.141 |  |
| C(=C\CN(C[C@H]1Cc2ccccc2CN1)[C@H]1CCCc2cccnc21)/CNCc1cccnc1 | 35.1 | 0.953 |  | > 30 | 1.84 | > 30 |  | 0.453 | 24.4 |
| NC/C=C\CN(C[C@H]1Cc2ccccc2CN1)[C@H]1CCCc2cccnc21 | 0.605 | 4.36 | 0.00926 | > 30 | 100 | > 30 | 3.9 | 0.333 | 56.9 |
| NCc1ccc(CN(C[C@H]2Cc3ccccc3CN2)[C@H]2CCCc3cccnc32)cc1 | > 33.3 |  |  |  |  | > 30 |  |  |  |
| NCc1ccccc1CN(C[C@H]1Cc2ccccc2CN1)[C@H]1CCCc2cccnc21 | 1.2 | 1.29 | 0.0508 | > 30 | 50.5 | > 30 | 18.4 | 0.318 | 21.4 |
| O=S1(=O)CCC(NCCCCN(C[C@H]2Cc3ccccc3CN2)[C@H]2CCCc3cccnc32)CC1 | > 33.3 | 17.6 | 0.0455 | > 30 | 11.7 | > 30 |  | 0.853 |  |
| c1ccc2c(c1)CN[C@@H](CN(Cc1ccc(CNCC3CCOCC3)cc1)[C@H]1CCCc3cccnc31)C2 | > 16.7 |  |  |  |  | > 30 |  |  |  |
| c1ccc2c(c1)CN[C@@H](CN(Cc1ccc(CNC3CCOCC3)cc1)[C@H]1CCCc3cccnc31)C2 | > 16.7 | 34.8 |  | > 30 | 20.4 | > 30 |  | 0.507 | 9.2 |
| c1ccc2c(c1)CN[C@@H](CN(Cc1ccc(CNCc3ccncc3)cc1)[C@H]1CCCc3cccnc31)C2 | 12.2 | 4.39 |  | > 30 | 0.882 | > 30 |  | 0.084 | 38.5 |
| NCc1cccc(CN(C[C@H]2Cc3ccccc3CN2)[C@H]2CCCc3cccnc32)c1 | 25.7 | 89.2 |  | > 30 | 97.3 | > 30 |  | 0.032 |  |
| c1cncc(CNCc2ccc(CN(C[C@H]3Cc4ccccc4CN3)[C@H]3CCCc4cccnc43)cc2)c1 | 21.4 |  |  |  |  | > 30 |  |  |  |

More lines, now with the values ahead:

| IC50 [1] [µM] | remaining at 10 min, 0.5 µM [2] [%] | IC50 [3] [µM] | EC50 [4] [µM] | remaining at 10 min, 0.5 µM [5] [%] | EC50 [6] [µM] | Papp at 4 h, 100 µM [7] [×10⁻⁶ cm/s] | IC50 (Cytochrome P450 2D6) [µM] | Papp at 4 h, 100 µM [8] [×10⁻⁶ cm/s] | Structure (SMILES) |
| --- | --- | --- | --- | --- | --- | --- | --- | --- | --- |
| 19.9 | 50 | 0.0776 | > 30 | 30.1 | > 30 |  | 0.09 | 0.3 | CC1(C)CCC(NCCCCN(C[C@H]2Cc3ccccc3CN2)[C@H]2CCCc3cccnc32)CC1 |
| > 33.3 | 38 | 0.0634 | > 30 | 100 | > 30 | 1.9 | 2.61 |  | c1ccc2c(c1)CN[C@@H](CN(CCCCNC1CCNCC1)[C@H]1CCCc3cccnc31)C2 |
| > 33.3 | 43.8 | 0.0752 | > 30 | 46.1 | > 30 | 1.45 | 0.524 |  | c1ccc2c(c1)CN[C@@H](CN(CCCCNC1CCCCC1)[C@H]1CCCc3cccnc31)C2 |
| > 33.3 | 48.5 | 0.0529 | > 30 | 57.6 | > 30 | 0.6 | 2.72 |  | c1ccc2c(c1)CN[C@@H](CN(CCCCNCC1CCOCC1)[C@H]1CCCc3cccnc31)C2 |
| > 33.3 | 23.2 | 0.0547 | > 30 | 39.9 | > 30 | 4.6 | 0.434 | 0.2 | c1ccc2c(c1)CN[C@@H](CN(CCCCNC1CCSCC1)[C@H]1CCCc3cccnc31)C2 |
| > 16.7 |  | 0.168 | > 30 |  | > 30 |  |  |  | FC1(F)CCC(CNCCCCN(C[C@H]2Cc3ccccc3CN2)[C@H]2CCCc3cccnc32)CC1 |
| > 16.7 | 37.9 | 0.0365 | > 30 | 84.6 | > 30 |  | 2.53 |  | c1ccc2c(c1)CN[C@@H](CN(CCCCNCC1CCNCC1)[C@H]1CCCc3cccnc31)C2 |
| 28.2 |  | 0.00371 | > 30 |  | > 30 |  |  |  | FC1(F)CCC(NCCCCN(C[C@H]2Cc3ccccc3CN2)[C@H]2CCCc3cccnc32)CC1 |
| > 16.7 | 39.3 | 0.017 | > 30 | 74 | > 30 |  | 1.17 |  | O=S1(=O)CCC(CNCCCCN(C[C@H]2Cc3ccccc3CN2)[C@H]2CCCc3cccnc32)CC1 |
| > 16.7 | 2.82 | 0.0696 | > 30 | 49.4 | > 30 |  | 0.629 |  | c1ccc2c(c1)CN[C@@H](CN(CCCCNCC1CCSCC1)[C@H]1CCCc3cccnc31)C2 |
| > 33.3 | 55.8 | 0.0294 | > 30 | 53 | > 30 |  | 0.657 |  | c1ccc2c(c1)CN[C@@H](CN(CCCCNC1CCOCC1)[C@H]1CCCc3cccnc31)C2 |
